Measurements as given in patent publication US12060439B2, “Polymorph of echinocandin antifungal agent” (Cidara Therapeutics, Inc., priority 2018, dated 2024).
Starred links: 1 amine or outer side, 2 acyl side, 3 side chain; linkers in the order of their positions; H or OH if unused. Positions of bridges follow the written chain, without caps; N, C: chain ends. Non-standard residues stand in square brackets, D forms with d. Residues, ends and D or L forms follow the SMILES beside them. *: point of attachment. Orn(4R-OH,5R-OCH2CH2NMe3+) = C[N+](C)(C)CCO[C@@H](N[*:3])[C@H](O)C[C@H](N[*:1])C(=O)[*:2]; pTerphenylCO(4''-OnC5H11) = CCCCCOc1ccc(-c2ccc(-c3ccc(C(=O)*)cc3)cc2)cc1; hTyr(3S-OH,4S-OH) = N[C@H](C(=O)O)[C@H](O)[C@@H](O)c1ccc(O)cc1; Pro(3S-OH,4S-Me) = C[C@H]1CN[C@H](C(=O)O)[C@H]1O; Hyp = O=C(O)[C@@H]1C[C@@H](O)CN1

What was measured:
Format in all cases: physicochemical
[1] = Solid form stability of polymorph on drying or storage, analysed by XRPD
Experimental: Compound 1 acetate Type E (1 g) was added to a beaker and dried in the vacuum oven at 40° C. overnight (not more than 18 hours). The solid was analyzed by XRPD analysis and shown to be Type B (FIG. 6).
Four samples of compound 1 acetate Type E were added to vials and placed in a desiccator, under vacuum, for up to 7 days.

[2] = Slurrying in EtOH at 40° C., form transformation by XRPD; conditions: after 3 days
[3] = Dynamic vapour sorption experiment; conditions: for weight gain during the sorption isotherm: from 40-80% RH, 10% RH increments
Experimental: Further weight loss above 160° C. may correspond with the onset of decomposition. A dynamic vapour sorption experiment of Type B material was performed. The sample was subjected to a step profile from 40-90% RH at 10% increments, followed by desorption from 90-0% RH at 10% increments and then adsorption from 0-40% RH at 10% increments.
A dynamic vapour sorption experiment of Type E material was performed. The sample was subjected to a step profile from 40 to 90% RH at 10% increments, followed by desorption from 90 to 0% RH at 10% increments and then adsorption from 0 to 40% RH at 10% increments. […] There was a larger weight gain above 80% RH.

[4] = Form stability as a function of ethanol activity (aEtOH)
Experimental: Compound 1 acetate and a solvent or solvent mixture were added to a vial and stirred at ambient temperature overnight to form a saturated suspension. Ethanol (EtOH) activity (aEtOH) of the solvent or solvent mixture was calculated using UNIFAC software. A further aliquot of the solvent or solvent mixture was added to the vial if the mixture was very thick. If all solids had dissolved, further amounts of compound 1 acetate were added and the mixture was stirred overnight. The slurry was then seeded with compound 1 acetate and compound 1 acetate-EtOH solvate and allowed to stir at ambient temperature for several days before isolation of solids and analysis by XRPD.
Compound 1 acetate Type E is a metastable solvate and converts to compound 1 acetate Type B on drying or storage at low ethanol activity (aEtOH<0.2). Type E was stable at an EtOH activity of >0.8.

[5] = Ambient conditions (44-63% RH, 20-25° C.) for 5 days
[6] = ambient temperature in the desiccator

| Compound | XRPD Result [1, 5] | form transformation to Type A (XRPD) [2] | weight gain during the sorption isotherm [3] | XRPD Result ([1]; Desiccator under vacuum at ambient conditions for 4 hours) | XRPD Result ([1]; Desiccator under vacuum at ambient conditions for 1 day) | XRPD Result ([1]; Desiccator under vacuum at ambient conditions for 5 days) | XRPD Result ([1]; Desiccator under vacuum at ambient conditions for 7 days) | time for which the form was stable [1, 6] | time to complete conversion to Type B [1, 6] | XRPD Result after drying ([1]; vacuum oven at 40° C. overnight (not more than 18 hours)) | EtOH activity at which the form was stable [4] | ethanol activity at which the form converts to Type B on storage ([4]; low ethanol activity) | weight loss during the equilibration hold ([3]; equilibration hold at 40% RH) |
| --- | --- | --- | --- | --- | --- | --- | --- | --- | --- | --- | --- | --- | --- |
| CCCCCOc1ccc(-c2ccc(-c3ccc(C(=O)N[C@H]4C[C@@H](O)[C@@H](OCC[N+](C)(C)C)NC(=O)[C@@H]5[C@@H](O)[C@@H](C)CN5C(=O)[C@H]([C@@H](C)O)NC(=O)[C@H]([C@H](O)[C@@H](O)c5ccc(O)cc5)NC(=O)[C@@H]5C[C@@H](O)CN5C(=O)[C@H]([C@@H](C)O)NC4=O)cc3)cc2)cc1 [Type B] ({pTerphenylCO(4''-OnC5H11)}-[Orn(4R-OH,5R-OCH2CH2NMe3+)]T[Hyp][hTyr(3S-OH,4S-OH)]T[Pro(3S-OH,4S-Me)]; lactam 1-C) | Type B | no form transformation | 6% | – | – | – | – | – | – | – | – | – | – |
| CCCCCOc1ccc(-c2ccc(-c3ccc(C(=O)N[C@H]4C[C@@H](O)[C@@H](OCC[N+](C)(C)C)NC(=O)[C@@H]5[C@@H](O)[C@@H](C)CN5C(=O)[C@H]([C@@H](C)O)NC(=O)[C@H]([C@H](O)[C@@H](O)c5ccc(O)cc5)NC(=O)[C@@H]5C[C@@H](O)CN5C(=O)[C@H]([C@@H](C)O)NC4=O)cc3)cc2)cc1 [Type E] ({pTerphenylCO(4''-OnC5H11)}-[Orn(4R-OH,5R-OCH2CH2NMe3+)]T[Hyp][hTyr(3S-OH,4S-OH)]T[Pro(3S-OH,4S-Me)]; lactam 1-C) | Type B | – | 5% | Type E | Type B + Type E | Type B | Type B | up to 4 hours | ≤ 5 days | Type B | > 0.8 | < 0.2 | ~18.5% |
